Measurements published in patent publication US5691319A, “Pyrimidine nucleoside derivatives having anti-tumor activity, their preparation and use” (Sankyo Company, Limited, priority 1991, dated 1997).

What was measured:
[1] = tested on: mouse fibrosarcoma M5076; test: Anti-tumor activity against M5076 fibrosarcoma (sc implanted, BDF1 mice); format: in vivo; conditions: days 1, 4, 7, 10, 13 and 16; for 60 day survivors optimal dose / growth inhibition (%) optimal dose: oral; for 60 day survivors optimal dose: survivors/mice; for growth inhibition (%) optimal dose / growth inhibition (%) optimal dose/4: tumor size on twentieth day; for growth inhibition (%) optimal dose/4: optimal dose/4, oral
Procedure: The test animals used were female mice, 8-10 weeks old, of the BDF1 strain, weighing 20-25 g. The mice were purchased from Charles River Japan Inc., Kanagawa Japan. The mice were divided into experimental groups, each group containing 6 mice, and all mice within each group were treated identically. Each mouse was inoculated subcutaneously with 1×10^6 viable cells (the number of cells was measured by a dye exclusion method under microscopy) of the mouse fibrosarcoma M5076.
The test compounds listed in the following Table were dissolved in 0.2 ml of N,N-dimethylacetamide and the solution was mixed with 10% Emulphor (trade mark)-physiological saline on an agate mortar. The final concentration of N,N-dimethylacetamide was 5% v/v. The solution was administered orally on the first, fourth, seventh, tenth, thirteenth and sixteenth days following inoculation of the fibrosarcoma cells. The period for which the mice survived and the % inhibition of tumor growth were determined. A control group was not treated.
The anti-tumor effect is shown in the following Table 4 as the percent growth inhibition [GI (%)], calculated from the following equations [R. I. Geran et al., Cancer Chemother. Rept., 3 (1972)]:
TDt=average value of tumor sizes on the twentieth day in the treated group; and
TDc=average value of tumor sizes on the twentieth day in the control group;
tumor size=(tumor length+tumor width)/2.

[2] = tested on: p-388 leukemia; test: Anti-tumor activity against p-388 leukemia (ip implanted, CDF1 mice); format: in vivo; conditions: for ILS (%) (increase in life span): days 1, 5 and 9; for 30 days survivors: days 1, 5 and 9, survivors/mice
Procedure: The test animals employed were female mice, 8 weeks of age, of the CDF1 strain, each weighing 21-25 g. The mice were divided into groups. each of 5 mice, and all mice within the group were treated identically. Into each mouse was implanted intraperitoneally 1×10^6 cells of the leukemia p-388.
The test compounds 1-9, 1-11, 1-15, 1-31 and 1-62 were dissolved in 0.2 ml of N,N-dimethylacetamide and the solution was mixed with 10% Emulphor (trade mark)-physiological saline on an agate mortar. Test compounds 1-34 and 1-41 were dissolved in a small amount of Tween 80 (registered trade mark) and immediately thereafter physiological saline was added to the solution form a suspension. The suspension was administered intraperitoneally on the first, fifth and ninth days following implantation of the leukemia cells. The period for which the mice survived was determined. A control group was treated identically, except that no active compound was administered.
The anti-tumor effect is shown in the following Table 3 as the increase in life span [ILS (%)], calculated from the following equation [R. I. Geran et al, Cancer Chemother. Rept., 3 (1972)]:
Dt=average number of days survival by the test group; and
Dc=average number of days survival by the control group.
In this test Dc was 9-10 days.

| Compound | 60 day survivors optimal dose [1] | growth inhibition (%) optimal dose [1] [%] | growth inhibition (%) optimal dose/4 [1] [%] | ILS (%) (increase in life span) ([2]; dose 200 mg/kg) | 30 days survivors ([2]; dose 200 mg/kg) | ILS (%) (increase in life span) ([2]; dose 50 mg/kg) | 30 days survivors ([2]; dose 50 mg/kg) | ILS (%) (increase in life span) ([2]; dose 100 mg/kg) | 30 days survivors ([2]; dose 100 mg/kg) |
| --- | --- | --- | --- | --- | --- | --- | --- | --- | --- |
| CCCCCC(=O)Nc1ccn([C@@H]2O[C@H](CO)[C@@H](O)[C@@H]2C#N)c(=O)n1 [Compound 1-1, 2'-Cyano-2'-deoxy-N^4-hexanoyl-1-β-D-arabinofuranosylcytosine] | 4/6 | 97.7 | 61.1 |  |  |  |  |  |  |
| CCCCCCCCCC(=O)Nc1ccn([C@@H]2O[C@H](CO)[C@@H](O)[C@@H]2C#N)c(=O)n1 [Compound 1-5, 2'-Cyano-N^4-decanoyl-2'-deoxy-1-β-D-arabinofuranosylcytosine] | 3/6 | 93.0 | 70.4 |  |  |  |  |  |  |
| CCCCCCCCCCCCCC(=O)Nc1ccn([C@@H]2O[C@H](CO)[C@@H](O)[C@@H]2C#N)c(=O)n1 [Compound 1-9, 2'-Cyano-2'-deoxy-N^4-tetradecanoyl-1-β-D-arabinofuranosylcytosine] | 5/6 | 97.3 | 79.1 | > 200 | 4/5 |  |  |  |  |
| CCCCCCCCCCCCCCCC(=O)Nc1ccn([C@@H]2O[C@H](CO)[C@@H](O)[C@@H]2C#N)c(=O)n1 [Compound 1-11, 2'-Cyano-2'-deoxy-N^4-palmitoyl-1-β-D-arabinofuranosylcytosine] | 5/6 | 99.2 | 90.2 |  |  | 189 | 2/5 |  |  |
| CCCCCCCCCCCCCCCCCC(=O)Nc1ccn([C@@H]2O[C@H](CO)[C@@H](O)[C@@H]2C#N)c(=O)n1 [Compound 1-13, 2'-Cyano-2'-deoxy-N^4-stearoyl-1-β-D-arabinofuranosylcytosine] | 4/6 | 98.1 | 88.9 |  |  |  |  |  |  |
| CCCCCCCCCCCCCCCCCCCC(=O)Nc1ccn([C@@H]2O[C@H](CO)[C@@H](O)[C@@H]2C#N)c(=O)n1 [Compound 1-15, 2'-Cyano-2'-deoxy-N^4-icosanoyl-1-β-D-arabinofuranosylcytosine] | 5/6 | 96.5 | 88.7 |  |  |  |  | 202 | 0/5 |
| COCOCCCCCCCCCC(=O)Nc1ccn([C@@H]2O[C@H](CO)[C@@H](O)[C@@H]2C#N)c(=O)n1 [Compound 1-31, 2'-Cyano-2'-deoxy-N^4-(10-methoxymethoxydecanoyl)-1-β-D-arabinofuranosylcytosine] |  |  |  | 152 | 0/5 |  |  |  |  |
| COCOCCCCCCCCCCCCCCCC(=O)Nc1ccn([C@@H]2O[C@H](CO)[C@@H](O)[C@@H]2C#N)c(=O)n1 [Compound 1-34, 2'-Cyano-2'-deoxy-N^4-(16-methoxymethoxyhexadecanoyl)-1-β-D-arabinofuranosylcytosine] | 5/6 | 96.0 | 87.2 |  |  |  |  | > 195 | 3/5 |
| COCCOCOCCCCCCCCCCCCCCCC(=O)Nc1ccn([C@@H]2O[C@H](CO)[C@@H](O)[C@@H]2C#N)c(=O)n1 [Compound 1-41, 2'-Cyano-2'-deoxy-N^4-(16-methoxyethoxymethoxyhexadecanoyl)-1-β-D-arabinofuranosylcytosine] | 5/6 | 99.2 | 76.2 |  |  |  |  | 159 | 2/5 |
| N#CCCCCCCCCCCC(=O)Nc1ccn([C@@H]2O[C@H](CO)[C@@H](O)[C@@H]2C#N)c(=O)n1 [Compound 1-62, 2'-Cyano-N^4-(11-cyanoundecanoyl)-2'-deoxy-1-β-D-arabinofuranosylcytosine] | 6/6 | 99.0 | 83.3 | 159 | 0/5 |  |  |  |  |
